According to ChEMBL document CHEMBL1201862, “PubChem BioAssay data set” (2004):
The source made the active and inactive calls.

Columns and labels:
Ephrin type-A receptor 4 = Ephrin type-A receptor 4 (Mus musculus, UniProt Q03137); test: inhibitors of EphA4 binding to KYL peptide, primary screen, biochemical, colorimetric, mouse EphA4 (AID 689); assay type: functional
[1] = target: Muscarinic acetylcholine receptor M1 (Rattus norvegicus, UniProt P08482); test: rat M1 positive allosteric modulator potency, dose response, cell-based, calcium mobilization, CHO-K1, ACh EC20 (AID 2425); assay type: functional
Fibrinogen beta chain [2] = target: T1, Fibrinogen beta chain (Homo sapiens, UniProt P02675); test: Fluorescence polarization-based biochemical high throughput dose response assay to identify inhibitors that disrupt the binding of a cyclic peptide (Tn6) to the fibrin proteolytic product D-Dimer and fragment E complex [DD(E )].
Fibrinogen beta chain [3] = target: T1, Fibrinogen beta chain; test: Fluorescence polarization-based biochemical high throughput dose response assay to identify inhibitors that disrupt the binding of a cyclic peptide (Tn7) to the fibrin proteolytic product D-Dimer and fragment E complex [DD(E )].
[4] = target: Ubiquitin carboxyl-terminal hydrolase BAP1 (Homo sapiens, UniProt Q92560); test: BAP1 deubiquitinase inhibitors, dose response, biochemical (AID 714); assay type: functional
[5] = system: Streptococcus sp. 'group A'; test: growth inhibition of control SK(-) GAS strain, dose response, counter-screen for streptokinase expression inhibitor project, luminescence, kanamycin, BacTiterGlo, confirmation (AID 1900); assay type: functional, organism-based
Coagulation factor XII = target: T2, Coagulation factor XII (Homo sapiens, UniProt P00748); test: FXIIa inhibitor potency, concentration-response, biochemical (AID 716); assay type: functional
T2 sequence (P00748 whole entry): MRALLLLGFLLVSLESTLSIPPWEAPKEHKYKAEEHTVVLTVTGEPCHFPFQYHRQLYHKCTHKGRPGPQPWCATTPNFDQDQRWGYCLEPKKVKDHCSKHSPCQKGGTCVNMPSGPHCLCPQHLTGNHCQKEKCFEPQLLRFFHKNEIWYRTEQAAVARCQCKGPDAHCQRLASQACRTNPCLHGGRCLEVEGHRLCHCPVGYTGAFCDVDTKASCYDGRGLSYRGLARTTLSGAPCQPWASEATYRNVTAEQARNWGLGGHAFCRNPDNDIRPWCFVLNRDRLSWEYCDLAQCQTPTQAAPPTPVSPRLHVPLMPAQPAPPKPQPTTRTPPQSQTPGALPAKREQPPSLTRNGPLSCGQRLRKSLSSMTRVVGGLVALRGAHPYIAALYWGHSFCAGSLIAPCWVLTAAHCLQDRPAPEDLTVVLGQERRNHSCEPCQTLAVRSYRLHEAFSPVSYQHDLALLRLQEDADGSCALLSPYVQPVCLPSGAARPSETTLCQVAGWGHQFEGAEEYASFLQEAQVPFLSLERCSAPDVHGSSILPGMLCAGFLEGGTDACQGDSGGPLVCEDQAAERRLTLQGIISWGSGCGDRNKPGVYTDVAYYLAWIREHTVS

[6] = HEK293T cytotoxicity, dose response, cytotoxicity control for miR-122 modulator project, cell-based, activator set, cherry-pick (AID 720690); assay type: functional;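 note: HEK293T human cells scored for general mammalian cytotoxicity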
[7] = HEK293T cytotoxicity, dose response, cytotoxicity control for miR-122 modulator project, cell-based, inhibitor set, cherry-pick, set 2 (AID 720697); assay type: functional
[8] = Shn3 3'UTR reporter inhibitors, dose response, cell-based, Clone20 osteoblasts, firefly luciferase, cherry-picked (AID 624132); assay type: functional;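 note: firefly luciferase luminescence from reporter carrying the Shn3 3'UTR in osteoblasts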
HT-1080 = test: cytotoxicity in HT1080 fibrosarcoma cells, cell-based, fluorescence readout (AID 620); assay type: functional; conditions: Homo sapiens
cells [9] = assay type: functional, cell-based
[10] = control 3'UTR Renilla luciferase suppression, dose response, counter-screen for Shn3 inhibitor project, cell-based, Clone20-Shn3RL, cherry-picked (AID 624133); assay type: functional
[11] = target: Luciferin 4-monooxygenase (Photinus pyralis, UniProt P08659); test: Counter Screen for Luciferase-based Assay Positives. [Related pubchem assays: 620, 618, 411 ]
[12] = NIH-3T3 fibroblast cytotoxicity, dose response, cytotoxicity control, cell-based, fluorescence, Alamar Blue, secondary assay (AID 2327); assay type: functional;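 note: NIH-3T3 mouse fibroblasts cultured with fluconazole at 8 µg/mL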
[13] = HepG2 hepatoma cell cytotoxicity, dose response, cytotoxicity control, CellTiter-Glo luminescence, dry powder, set 3 (AID 720594); assay type: functional, cell-based
Streptococcus = test: Group A Streptococcus viability loss, dose response, counter-screen for streptokinase expression inhibitor project, luminescence, BacTiterGlo (AID 1915); assay type: functional, organism-based;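 note: potency for reduction of bacterial viability or growth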
[14] = HeLa cell cytotoxicity, dose response, cytotoxicity control, CellTiter-Glo luminescence, dry powder, set 2 (AID 720593); assay type: functional, cell-based
[15] = target: T3, Microphthalmia-associated transcription factor (Homo sapiens, UniProt O75030); test: TRPM1 promoter luciferase signal decrease, dose response, MITF inhibitor project, cell-based, SK-MEL-5, cherry-picked, set 3 (AID 493073); assay type: functional
T3 sequence (O75030 whole entry): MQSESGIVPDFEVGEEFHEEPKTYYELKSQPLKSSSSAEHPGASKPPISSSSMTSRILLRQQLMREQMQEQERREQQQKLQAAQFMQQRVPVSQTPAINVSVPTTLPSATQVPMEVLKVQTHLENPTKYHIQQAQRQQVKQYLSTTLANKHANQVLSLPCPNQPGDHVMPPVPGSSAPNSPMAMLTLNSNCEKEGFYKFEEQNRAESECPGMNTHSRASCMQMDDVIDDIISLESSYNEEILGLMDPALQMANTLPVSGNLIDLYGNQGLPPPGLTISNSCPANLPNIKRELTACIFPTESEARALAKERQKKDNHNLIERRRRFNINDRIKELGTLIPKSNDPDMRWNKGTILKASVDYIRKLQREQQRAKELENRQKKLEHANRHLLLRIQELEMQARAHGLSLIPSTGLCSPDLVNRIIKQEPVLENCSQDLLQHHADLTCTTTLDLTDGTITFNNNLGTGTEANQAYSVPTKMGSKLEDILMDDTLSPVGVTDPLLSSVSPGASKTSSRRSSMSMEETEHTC

[16] = HEK293T cell cytotoxicity, dose response, cytotoxicity control, CellTiter-Glo luminescence, dry powder, set 2 (AID 720595); assay type: functional, cell-based; conditions: HEK293
[17] = HepG2 cell cytotoxicity, dose response, cytotoxicity control for Shn3 inhibitor project, CellTiter-Glo, cherry-picked (AID 624134); assay type: functional, cell-based
cells [18] = assay type: functional, cell-based; remark: listed apart in the source
[19] = C. albicans growth with fluconazole, confirmation, fluorescence, retest (AID 2467); assay type: functional, cell-based
[20] = M. tuberculosis growth inhibition, HTS (AID 449762); assay type: functional

T1 sequence (P02675 whole entry, the tested form may be a part): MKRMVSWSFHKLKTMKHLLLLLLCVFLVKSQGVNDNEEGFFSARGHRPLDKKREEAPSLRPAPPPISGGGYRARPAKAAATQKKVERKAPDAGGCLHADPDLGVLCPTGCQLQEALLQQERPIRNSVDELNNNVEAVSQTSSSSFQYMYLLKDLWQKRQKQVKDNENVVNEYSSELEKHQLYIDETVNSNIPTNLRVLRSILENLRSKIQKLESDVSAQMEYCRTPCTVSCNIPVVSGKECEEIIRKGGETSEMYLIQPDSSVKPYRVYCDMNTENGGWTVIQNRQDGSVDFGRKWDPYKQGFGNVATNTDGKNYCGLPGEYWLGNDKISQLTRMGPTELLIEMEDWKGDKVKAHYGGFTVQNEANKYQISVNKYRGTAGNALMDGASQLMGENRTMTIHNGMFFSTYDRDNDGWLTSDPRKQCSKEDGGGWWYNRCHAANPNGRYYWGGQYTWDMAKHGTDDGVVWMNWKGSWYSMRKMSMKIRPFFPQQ
Ephrin type-A receptor 4, sequence (Q03137 whole entry): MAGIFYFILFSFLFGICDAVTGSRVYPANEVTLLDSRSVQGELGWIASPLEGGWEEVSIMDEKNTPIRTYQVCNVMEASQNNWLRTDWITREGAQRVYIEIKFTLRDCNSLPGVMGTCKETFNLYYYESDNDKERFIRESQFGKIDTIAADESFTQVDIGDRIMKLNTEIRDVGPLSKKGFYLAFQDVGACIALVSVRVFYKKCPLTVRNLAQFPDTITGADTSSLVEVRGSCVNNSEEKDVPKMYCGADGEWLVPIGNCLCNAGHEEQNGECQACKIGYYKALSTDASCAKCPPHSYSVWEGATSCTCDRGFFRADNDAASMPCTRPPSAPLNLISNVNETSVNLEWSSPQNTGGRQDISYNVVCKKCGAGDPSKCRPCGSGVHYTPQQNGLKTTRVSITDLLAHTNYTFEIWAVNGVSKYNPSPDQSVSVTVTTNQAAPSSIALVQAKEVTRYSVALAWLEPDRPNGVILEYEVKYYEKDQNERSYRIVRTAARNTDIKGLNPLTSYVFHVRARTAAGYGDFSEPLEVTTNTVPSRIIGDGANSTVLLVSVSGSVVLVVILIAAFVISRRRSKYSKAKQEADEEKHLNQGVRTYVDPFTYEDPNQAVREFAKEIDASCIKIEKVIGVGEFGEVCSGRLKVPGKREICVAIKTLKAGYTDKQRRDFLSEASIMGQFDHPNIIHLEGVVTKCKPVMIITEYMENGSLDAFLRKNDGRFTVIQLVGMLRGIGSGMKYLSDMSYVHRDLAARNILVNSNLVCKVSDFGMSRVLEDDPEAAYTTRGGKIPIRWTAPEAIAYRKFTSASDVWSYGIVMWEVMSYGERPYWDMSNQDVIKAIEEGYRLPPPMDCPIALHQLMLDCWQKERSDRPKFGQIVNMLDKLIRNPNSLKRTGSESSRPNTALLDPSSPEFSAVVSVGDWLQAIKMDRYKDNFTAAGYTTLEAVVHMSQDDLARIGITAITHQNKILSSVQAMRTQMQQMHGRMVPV
Ubiquitin carboxyl-terminal hydrolase BAP1, sequence (Q92560 whole entry): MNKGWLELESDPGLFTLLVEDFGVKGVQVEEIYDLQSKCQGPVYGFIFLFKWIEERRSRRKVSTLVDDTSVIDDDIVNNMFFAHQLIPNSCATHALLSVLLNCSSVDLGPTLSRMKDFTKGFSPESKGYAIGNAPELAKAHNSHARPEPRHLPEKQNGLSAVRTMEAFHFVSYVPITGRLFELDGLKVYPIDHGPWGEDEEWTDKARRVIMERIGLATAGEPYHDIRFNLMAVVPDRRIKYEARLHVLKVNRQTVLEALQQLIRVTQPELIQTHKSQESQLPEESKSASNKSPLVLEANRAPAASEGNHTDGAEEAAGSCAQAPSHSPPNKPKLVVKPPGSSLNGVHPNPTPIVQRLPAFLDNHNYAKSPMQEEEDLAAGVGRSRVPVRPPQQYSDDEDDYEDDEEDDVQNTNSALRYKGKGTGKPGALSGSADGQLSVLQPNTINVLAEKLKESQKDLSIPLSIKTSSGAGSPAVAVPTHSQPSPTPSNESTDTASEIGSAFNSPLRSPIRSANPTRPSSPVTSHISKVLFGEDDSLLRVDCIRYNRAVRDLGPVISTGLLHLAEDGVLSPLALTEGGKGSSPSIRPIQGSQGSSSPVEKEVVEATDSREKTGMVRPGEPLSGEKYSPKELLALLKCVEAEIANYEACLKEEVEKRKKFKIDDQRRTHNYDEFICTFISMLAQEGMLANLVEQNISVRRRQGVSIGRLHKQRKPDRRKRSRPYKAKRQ
Muscarinic acetylcholine receptor M1, sequence (P08482 whole entry, the tested form may be a part): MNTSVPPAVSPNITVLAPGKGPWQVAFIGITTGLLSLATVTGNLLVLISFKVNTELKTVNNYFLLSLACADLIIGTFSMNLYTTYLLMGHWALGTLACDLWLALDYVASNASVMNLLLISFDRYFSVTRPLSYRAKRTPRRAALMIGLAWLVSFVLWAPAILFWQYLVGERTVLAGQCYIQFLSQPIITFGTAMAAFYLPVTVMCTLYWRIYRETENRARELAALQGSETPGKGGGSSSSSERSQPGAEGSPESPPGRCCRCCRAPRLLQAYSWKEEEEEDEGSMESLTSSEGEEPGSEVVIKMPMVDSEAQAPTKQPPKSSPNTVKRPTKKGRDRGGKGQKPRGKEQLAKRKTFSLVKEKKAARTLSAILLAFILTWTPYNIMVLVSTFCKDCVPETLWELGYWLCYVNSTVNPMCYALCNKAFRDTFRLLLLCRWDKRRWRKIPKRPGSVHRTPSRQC
Luciferin 4-monooxygenase, sequence (P08659 whole entry): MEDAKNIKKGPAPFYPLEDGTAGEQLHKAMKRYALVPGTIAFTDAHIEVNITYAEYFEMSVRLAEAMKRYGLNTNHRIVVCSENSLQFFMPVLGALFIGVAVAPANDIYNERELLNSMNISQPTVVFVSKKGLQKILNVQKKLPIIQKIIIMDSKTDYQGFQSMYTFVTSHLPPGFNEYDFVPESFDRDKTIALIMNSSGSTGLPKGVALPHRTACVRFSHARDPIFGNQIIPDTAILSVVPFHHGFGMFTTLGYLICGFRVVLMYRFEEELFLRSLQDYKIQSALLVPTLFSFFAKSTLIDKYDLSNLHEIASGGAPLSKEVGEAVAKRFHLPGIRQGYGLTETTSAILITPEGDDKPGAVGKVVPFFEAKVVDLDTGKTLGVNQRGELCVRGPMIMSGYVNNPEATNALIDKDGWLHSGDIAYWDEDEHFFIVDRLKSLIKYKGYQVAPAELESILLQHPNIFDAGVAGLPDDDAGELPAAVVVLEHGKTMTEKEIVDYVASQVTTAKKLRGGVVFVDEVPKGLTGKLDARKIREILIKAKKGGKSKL

Compound: CCCCN(CCCC)c1nc2ccccc2nc1/C(C#N)=C(/O)OCC
- IC50 (Ephrin type-A receptor 4): 5.65 µM (active)

Compound: Cc1cc(NC(=O)CS(=O)(=O)c2cn(Cc3cc(Br)ccc3F)c3ccccc23)no1
- EC50 [1]: 1.42 µM (active)

Compound: Cc1cc2c(cc1S(=O)(=O)N1CCN(c3cccc(C)c3C)CC1)OCCN2C
- IC50 (Fibrinogen beta chain [2]): 10.1 µM (inactive)
- IC50 (Fibrinogen beta chain [3]): > 83.3 µM (inactive)

Compound: O=C(CSc1nc2c(c(=O)n1-c1ccc(Cl)cc1)SCC2)Nc1ccc2c(c1)OCCO2
- IC50 [4]: 38.6 µM (not active)

Compound: CC(C)C(=O)NC(c1ccco1)c1ccc2cccnc2c1O (centres undefined)
- EC50 [5]: 3.15 µM (active)
- IC50 (Coagulation factor XII): > 50 µM (inactive)
- AC50 [6]: 5 µM (active)
- AC50 [7]: 3.72 µM (active)
- AC50 [8]: 2.05 µM (active)
- EC50 (HT-1080): > 50 µM (not active)
- EC50 (cells [9]): > 350 µM (not active)
- AC50 [10]: 4.36 µM (active)
- EC50 [11]: 38.8 µM (active)
- EC50 [12]: 4.72 µM (inconclusive)
- AC50 [13]: > 52 µM (inactive)
- EC50 (Streptococcus): 3.87 µM (active)
- AC50 [14]: > 52 µM (inactive)
- AC50 [15]: 8.18 µM (active)
- AC50 [16]: 6.24 µM (active)
- AC50 [17]: 3.1 µM (active)
- EC50 (cells [18]): 16.5 µM (active)
- EC50 [19]: 1.6 µM (active)

Compound: CCCNC(=O)NC(=O)COc1ccc2oc3ccccc3c2c1
- IC50 [20]: > 100 µM (active)
